# Source: patent US9446130B2, “BTK inhibitors” (MERCK SHARP & DOHME CORP., priority 2013, dated 2016)
# Tests used:
# [1] = target: T1, BTK enzyme (hBTK, full-length recombinant) (Homo sapiens (Human), UniProt Q06187); test: Btk enzyme activity assay, Method A: IMAP-FP; type: biochemical; settings: 5 μM ATP, 60 minute compound & enzyme incubation
# Excerpt: Inhibition of kinase activity can be measured using the Immobilized Metal Assay for Phosphochemicals (IMAP) assay. IMAP is a homogeneous fluorescence polarization (FP) assay based on affinity capture of phosphorylated peptide substrates. IMAP uses fluorescein-labeled peptide substrates that, upon phosphorylation by a protein kinase, bind to so-called IMAP nanoparticles, which are derivatized with trivalent metal complexes. Binding causes a change in the rate of the molecular motion of the peptide, and results in an increase in the FP value observed for the fluorescein label attached to the substrate peptide (Gaudet et al. A homogeneous fluorescence polarization assay adaptable for a range of protein serine/threonine and tyrosine kinases. J. Biomol. Screen (2003) 8, 164-175).
# BTK enzymatic activity was determined in an IMAP-FP assay (Immobilized Metal ion Affinity-based fluorescence Polarization; Molecular Devices). […] Plates were read on Packard microplate reader after 60 minutes binding equilibration using Fluorescence Polarization protocol. Specifically, fluorescence at 535 nm is measured using emission filters oriented both parallel and perpendicular to the polarized excitation filter. This allows detection of changes in Fluorescence Polarization due to binding of the phosphorylated substrate peptide to the beads. […]
# [2] = target: T1, BTK enzyme (hBTK, full-length recombinant); test: Btk enzyme activity assay, Method B: LANCE TR-FRET; type: biochemical; settings: 25 μM ATP, 60 minute compound & enzyme incubation
# Experimental: Also BTK enzymatic activity was determined with the LANCE (Lanthanide Chelate Excite) TR-FRET (Time-resolved fluorescence resonance energy transfer) assay. […] The final reaction in each well of 10 μL consists of 100 pM hBTK, 2 μM biotin-A5-peptide, and 25 μM ATP. Phosphorylation reactions were allowed to proceed for 120 minutes. […] After 60 minutes incubation with detection reagents, reaction plates were read on a PerkinElmer EnVision plate reader using standard TR-FRET protocol. Briefly, excitation of donor molecules (Eu-chelate:anti-phospho-antibody) with a laser light source at 337 nm produces energy that can be transferred to Dylight-650 acceptor molecules if this donor:acceptor pair is within close proximity. Fluorescence intensity at both 665 nm (acceptor) and 615 nm (donor) are measured and a TR-FRET ratio calculated for each well (acceptor intensity/donor intensity). IC50 values were determined by 4 parameter robust fit of TR-FRET ratio values vs. (Log10) compound concentrations. BTK enzymatic activity was determined with the LANCE (Lanthanide Chelate Excite) TR-FRET (Time-resolved fluorescence resonance energy transfer) assay. […] The final reaction in each well of 10 μL consists of 50 pM hBTK, 2 μM biotin-A5-peptide, and 25 μM ATP. Phosphorylation reactions were allowed to proceed for 120 minutes. […] After 60 minutes incubation with detection reagents, reaction plates were read on a PerkinElmer EnVision plate reader using standard TR-FRET protocol. Briefly, excitation of donor molecules (Eu-chelate:anti-phospho-antibody) with a laser light source at 337 nm produces energy that can be transferred to Dylight-650 acceptor molecules if this donor:acceptor pair is within close proximity. Fluorescence intensity at both 665 nm (acceptor) and 615 nm (donor) are measured and a TR-FRET ratio calculated for each well (acceptor intensity/donor intensity). IC50 values were determined by 4 parameter robust fit of TR-FRET ratio values vs. (Log10) compound concentrations.
# T1 sequence (Q06187 whole entry): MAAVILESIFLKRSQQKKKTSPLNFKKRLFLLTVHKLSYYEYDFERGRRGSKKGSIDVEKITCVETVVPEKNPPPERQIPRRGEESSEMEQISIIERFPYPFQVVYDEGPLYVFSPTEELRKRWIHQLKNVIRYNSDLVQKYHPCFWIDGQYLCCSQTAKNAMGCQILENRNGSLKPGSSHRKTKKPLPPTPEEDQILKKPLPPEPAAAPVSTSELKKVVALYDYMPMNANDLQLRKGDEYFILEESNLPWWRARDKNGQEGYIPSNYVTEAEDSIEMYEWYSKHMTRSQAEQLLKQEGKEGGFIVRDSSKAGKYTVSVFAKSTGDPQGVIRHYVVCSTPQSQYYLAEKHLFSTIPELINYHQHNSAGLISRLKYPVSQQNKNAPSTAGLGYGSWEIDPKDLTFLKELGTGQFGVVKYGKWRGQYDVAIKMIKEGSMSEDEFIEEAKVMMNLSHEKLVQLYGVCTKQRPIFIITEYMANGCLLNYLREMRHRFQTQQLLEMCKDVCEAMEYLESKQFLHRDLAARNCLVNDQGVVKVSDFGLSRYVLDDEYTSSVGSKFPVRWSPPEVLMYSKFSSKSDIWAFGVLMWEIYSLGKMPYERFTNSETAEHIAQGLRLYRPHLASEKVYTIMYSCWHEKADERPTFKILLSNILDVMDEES
SMILES,IC50 [1],IC50 [2]
"Cn1ncc2c1CCC[C@H]2c1nc(-c2ccc(C(=O)Nc3cc(C(F)(F)F)ccn3)cc2)c2c(N)nccn12 [Example 23, (R)-4-(8-amino-3-(1-methyl-4,5,6,7-tetrahydro-1H-indazol-4-yl)imidazo[1,5-a]pyrazin-1-yl)-N-(4-(trifluoromethyl)pyridin-2-yl)benzamide]",,1000 nM
"CC(C)Oc1ccnc(NC(=O)c2ccc(-c3nc(N4CCn5c(nnc5C(F)(F)F)C4)n4ccnc(N)c34)cc2)c1 [Example 25, 4-(8-amino-3-(3-(trifluoromethyl)-5,6-dihydro-[1,2,4]triazolo[4,3-a]pyrazin-7(8H)-yl)imidazo[1,5-a]pyrazin-1-yl)-N-(4-isopropoxypyridin-2-yl)benzamide]",,43 nM

# The next lines start with the values.
IC50 [1],IC50 [2],SMILES
7.2 nM,,"Cn1ncc2c1CCCC2(O)c1nc(-c2ccc(C(=O)Nc3cc(C(F)(F)F)ccn3)cc2)c2c(N)nccn12 (centres unmarked) [Example 1, 4-(8-amino-3-(4-hydroxy-1-methyl-4,5,6,7-tetrahydro-1H-indazol-4-yl)imidazo[1,5-a]pyrazin-1-yl)-N-(4-(trifluoromethyl)pyridin-2-yl)benzamide]"
12 nM,,"CCn1ncc2c1CCCC2(O)c1nc(-c2ccc(C(=O)Nc3cc(C(F)(F)F)ccn3)cc2)c2c(N)nccn12 (centres unmarked) [Example 4, 4-(8-amino-3-(1-ethyl-4-hydroxy-4,5,6,7-tetrahydro-1H-indazol-4-yl)imidazo[1,5-a]pyrazin-1-yl)-N-(4-(trifluoromethyl)pyridin-2-yl)benzamide]"
,740 nM,"Cn1ncc2c1CCC[C@@H]2c1nc(-c2ccc(C(=O)Nc3cc(C(F)(F)F)ccn3)cc2)c2c(N)nccn12 [Example 24, (S)-4-(8-amino-3-(1-methyl-4,5,6,7-tetrahydro-1H-indazol-4-yl)imidazo[1,5-a]pyrazin-1-yl)-N-(4-(trifluoromethyl)pyridin-2-yl)benzamide]"
